Legend:
HUVECs [1] = assay: […] migration assay; format: cell-based, human; details: TRANSWELL
Method: Specificity of the inhibitory effect of DUF2C5 was determined by EC migration induced by different stimuli in a […] migration assay. HUVECs migrated toward 2.2 nmol/L VEGF, 50 ng/mL basic fibroblast growth factor (bFGF), or 1 μmol/L sphingosine-1-phosphate (S1P) were visualized by hematoxylin staining, and number of migrated cells were counted. Data are expressed as means±SEM. N=3. *P<0.05 (one-way analysis of variance and Bonferroni multiple comparisons test).
(§1) Collagen invasion assay was performed as previously described (Kang, et al. (2011) J. Biol. Chem. 286:42017-26). In vitro capillary network formation on […] (BD Biosciences, San Jose, Calif.) and scratch wound healing assay were performed as previously described (Humtsoe, et al. (2010) Mol. Cell Biol. 30:1593-1606). Fibrin gel sprouting assay was performed as described by Nakatsu & Hughes ((2008) Methods Enzymol. 443:65-82). VEGF (2.2 nmol/L) stimulation was used for all in vitro angiogenesis assays. Transwell migration assay was performed as described by Kaplan, et al. ((2011) Free Radical Res. 45:1124-35) using VEGF (4.4 nmol/L), sphingosine-1-phosphate (S1P) (1 μmol/L), or basic fibroblast growth factor (bFGF) (50 ng/mL) in the presence or absence of kinesin-derived angiogenesis inhibitor (DUF2C5; residues 1238-1260 of KIF13B) at varying concentrations.
EC migration in response to DUF2C5 was determined using the scratch wound healing assay. […] The […] migration assay was also employed to determine whether the inhibitory effect of DUF2C5 on EC migration was specific to VEGF. HUVECs were placed in the […] chamber with or without DUF2C5 or CT23. […] PBS and CT23 had no effect on EC migration induced by all stimuli.

HUVECs [2] = assay: VEGF-induced capillary network formation on […] in vitro; format: cell-based, human; details: synthetic peptide added
Method: as §1
To test the bioactivity of the truncated mutant of KIF13B, DUF2C was expressed by lentivirus vector in HUVECs. […] The collagen invasion system (Kang, et al. (2011) J. Biol. Chem. 286:42017-42026) was used as another angiogenesis assay to test the peptides. After infection with control lentivirus, FLAG-DUF2C, or FLAG-DUF2, HUVECs were seeded on collagen gels. Cell invasion in response to proangiogenic stimuli SIP and VEGF in the gel was monitored for up to 24 hours.
Bioactivities in two-dimensional capillary network formation assay were assessed in HUVECs expressing KIF13B truncated mutants or vector controls. HUVECs were infected with lentiviruses encoding FLAG-C2, -C3, -C5, -C8, -C9, or vector.
Changes in VEGF-induced network formation assay were assessed in […] plugs. […] VEGF-induced EC sprouting was also determined by 3-dimensional culture of HUVECs on beads (Nakatsu & Hughes (2008) Methods Enzymol. 443:65-82).

[3] = tested on: choroidal neovascularization; assay: laser-induced choroidal neovascularization (CNV); format: in vivo, mouse; details: eye drop, 2 μg/eye daily
Method: FIG. 5A and FIG. 5B show the effect of DUF2C5 treatment on laser-induced CNV. FIG. 5A, Dose-dependent effect of DUF2C5 was tested by intravitreal injection of DUF2C5 0.5 μg, 2 μg, and 10 μg after laser photocoagulation. Neovascularization was assessed by the area of ILB4-staining, and plotted in the graph (N=5 mice in each group, and 4 laser burns were induced in each mouse). Asterisks indicate p<0.05, One-way ANOVA. FIG. 5B, Effect of DUF2C5 as an eye drop was tested in CNV model. After laser photocoagulation, mice were treated daily with either control peptide (2 μg/eye) or DUF2C5 (2 μg/eye) for […]. Neovascularization was assessed by the area of ILB4-staining, and plotted in the graph (N=7 mice in each group, and 4 laser burns were induced in each mouse). Asterisks indicate p<0.05, t-test. […]
Choroidal neovascularization was evaluated by ocular coherence tomography (OCT) and fluorescein angiography at day 7 and 14. […]
The experiments were terminated at day 14 after taking images of OCT and angiography. […] The area of vascular leakage and CNV was quantified using confocal image of CNV staining for lectin B4 using MetaMorph software. Data was plotted and analyzed statistically with Prism 6 (Graph Pad, San Diego Calif.). […]
The effect of DUF2C5 as an eye drop was subsequently tested. […] Neovascularization was assessed by OCT, fluorescein angiography, and staining with ILB4.

With “CT23: negative control, C-terminal 23-amino acid peptide, residues 1650 to 1672 of KIF13B (RVRASELRSFSRMLAGDPGCSPG)” the “bFGF-induced EC migration” value (HUVECs [1]; stimulus 50 ng/mL bFGF) was “had no effect”, the “S1P-induced EC migration” value (HUVECs [1]; stimulus 1 μmol/L S1P) was “had no effect” and the “VEGF-induced EC migration” value (HUVECs [1]; stimulus VEGF) was “had no effect”. For the same substance, the VEGF-induced network formation (HUVECs [2]) was “had no effect” and the “neovascularization (laser-induced CNV)” value [3] was “did not have any effect”.

Source: patent US11299524B2, “KIF13B-derived peptide and method of inhibiting angiogenesis” (THE BOARD OF TRUSTEES OF THE UNIVERSITY OF ILLINOIS, priority 2016, dated 2022)
